Data from patent US9364477B2, “Mutant ROS expression in human cancer” (Cell Signaling Technology, Inc., priority 2009, dated 2016).

What was measured:
[1] = test system: BaF3 expressing FIG-ROS(S); assay: MTS cell growth assay, BaF3 expressing FIG-ROS(S); format: cell-based, Murine
Method: (§1) BaF3 cells were transduced with retrovirus encoding FIG-ROS(S), FIG-ROS(L), or FLT-31TD (the Internal tandem duplication mutation in FLT3 causes AML leukemia), and selected for IL3 independent growth. Karpas 299 cells, which express NPM-ALK, was used as a positive control.
(§2) After 72 hours, 20 ul of the CellTiter 96 Aqueous One Solution Reagent was added into each well of a 96 well assay plate (flat bottom), and then 100 ul of cells grown with or without treatment. Media-only wells were used as controls. The 96 well plate was incubated for 1-4 hours at 37° C., and then viable cells were counted by reading the absorbance at 490 nm using a 96 well plate reader.

[2] = test system: BaF3 expressing FIG-ROS(L); assay: MTS cell growth assay, BaF3 expressing FIG-ROS(L); format: cell-based, Murine; conditions: 0-1000 nM TAE-684, 72 hours
Method: as §1, §2

[3] = test system: BaF3 expressing FLT3ITD; assay: MTS cell growth assay, BaF3 transduced with FLT3/ITD; format: cell-based, Murine; conditions: 0-1000 nM TAE-684, 72 hours
Method: as §1, §2

[4] = test system: Karpas 299 cells; assay: MTS cell growth assay, Karpas 299 cells (NPM-ALK); format: cell-based; conditions: 0-1000 nM TAE-684, 72 hours
Method: as §1, §2

[5] = test system: BaF3 cells expressing FIG-ROS(S); assay: Cleaved caspase-3 flow cytometry apoptosis assay, BaF3 FIG-ROS(S); format: cell-based, Murine; conditions: presence of TAE-684
From the text: (§3) The mechanism of death of the BaF3 and Karpas 299 cells was next reviewed by measuring the percentage of cleaved-caspase 3 positive cells by flow cytometry assay using cleaved caspase-3 as a marker for apoptosis.

[6] = test system: BaF3 cells expressing FIG-ROS(L); assay: Cleaved caspase-3 flow cytometry apoptosis assay, BaF3 FIG-ROS(L); format: cell-based, Murine; conditions: presence of TAE-684
From the text: as §3

[7] = test system: Karpas 299 cells; assay: Cleaved caspase-3 flow cytometry apoptosis assay, Karpas 299; format: cell-based; conditions: presence of TAE-684
From the text: as §3

[8] = target: FIG-ROS(S) (Homo sapiens, UniProt P08922); assay: Western blotting of phosphorylation, BaF3 FIG-ROS(S); format: cell-based; conditions: 0, 10, 50, or 100 nM TAE-684 for three hours
[9] = target: FIG-ROS(L) (Homo sapiens, UniProt P08922); assay: Western blotting of phosphorylation, BaF3 FIG-ROS(L); format: cell-based; conditions: 0, 10, 50, or 100 nM TAE-684 for three hours
[10] = test system: BaF3 cells transduced with the FLT-31TD retrovirus; assay: Western blotting of phosphorylation, BaF3 FLT-31TD; format: cell-based, Murine; conditions: 0, 10, 50, or 100 nM TAE-684 for three hours
[11] = test system: Ros (D4D6) XP™ Rabbit mAb; conditions: HCC78 cells; antibody 0.19 μg/ml; peptide 1.9 ug/ml
Method: Briefly, paraffin embedded HCC78 cell pellets were deparaffinized and rehydrated through three changes of xylene and graded ethanol, then rinsed in diH2O. Slides were subjected to antigen retrieval in 1.0 mM EDTA, pH 8.0 in the microwave. After blocking for 1 hour in TBST/5% goat serum, slides were incubated overnight at 4° C. with Ros (D4D6) XP™ Rabbit mAb at 0.19 μg/ml in the absence of peptide or in the presence of one of 13 different ROS peptides at 1.9 ug/ml.
After washing, detection was performed with SignalStain® Boost IHC Detection Reagent (HRP, Rabbit) #8114 and NovaRed (Vector Laboratories, Burlingame, Calif.).

phosphorylation of FIG-ROS(S) [8]	phosphorylation of STAT3, AKT, and ERK, and Shp2 (downstream signaling molecules) [8]	phosphorylation of FIG-ROS(L) [9]	phosphorylation of STAT3, AKT, and ERK, and Shp2 (downstream signaling molecules) [9]	Compound	cellular growth response in the presence of TAE-684 ([1]; BaF3 FIG-ROS(S), 0-1000 nM TAE-684, 72 hours, MTS)	susceptibility of FIG-ROS(S) to TAE-684 compared with FIG-ROS(L) ([1]; BaF3 cells, MTS assay)	cellular growth response in the presence of TAE-684 [2]	cellular growth response in the presence of TAE-684 [3]	cellular growth response in the presence of TAE-684 [4]	death by apoptosis (cleaved-caspase 3 positive cells) [5]	death by apoptosis (cleaved-caspase 3 positive cells) [6]	cell cycle arrest [7]	death by apoptosis (cleaved-caspase 3 positive cells) [7]	phosphorylation of STAT3, AKT, and ERK, and Shp2 [10]	competition of ROS antibody binding off the IHC slide [11]
inhibited	inhibited	inhibited	inhibited	COc1cc(N2CCC(N3CCN(C)CC3)CC2)ccc1Nc1ncc(Cl)c(Nc2ccccc2S(=O)(=O)C(C)C)n1 [TAE-684]	stopped growing	less susceptible	stopped growing	not susceptible	stopped growing	die by apoptosis	die by apoptosis	underwent cell cycle arrest	did not die by apoptosis	not affected	
				(biotin)AGAGVAYCPSGKPE [peptide 9]											able to compete
